# Data from ChEMBL document CHEMBL1201862, “PubChem BioAssay data set” (2004).
# Active and inactive are the calls of the source.
# How the values were obtained:
# [1] = Vero E6 cell cytotoxicity, dose response, cytotoxicity control for non-replicating M. tuberculosis project, secondary assay (AID 492998); format: functional, VeroE6; details: Vero C1008
# [2] = cells; format: functional
# [3] = THP-1 cell cytotoxicity, dose response, cytotoxicity control for non-replicating M. tuberculosis project (AID 489025); format: functional
# [4] = target: T1, Coagulation factor XII (Homo sapiens, UniProt P00748); format: functional;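 also: activated factor XIIa alpha cleaving a fluorogenic AMC peptide substrate; inhibitor potency from loss of enzyme activity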
# T1 sequence (P00748 whole entry): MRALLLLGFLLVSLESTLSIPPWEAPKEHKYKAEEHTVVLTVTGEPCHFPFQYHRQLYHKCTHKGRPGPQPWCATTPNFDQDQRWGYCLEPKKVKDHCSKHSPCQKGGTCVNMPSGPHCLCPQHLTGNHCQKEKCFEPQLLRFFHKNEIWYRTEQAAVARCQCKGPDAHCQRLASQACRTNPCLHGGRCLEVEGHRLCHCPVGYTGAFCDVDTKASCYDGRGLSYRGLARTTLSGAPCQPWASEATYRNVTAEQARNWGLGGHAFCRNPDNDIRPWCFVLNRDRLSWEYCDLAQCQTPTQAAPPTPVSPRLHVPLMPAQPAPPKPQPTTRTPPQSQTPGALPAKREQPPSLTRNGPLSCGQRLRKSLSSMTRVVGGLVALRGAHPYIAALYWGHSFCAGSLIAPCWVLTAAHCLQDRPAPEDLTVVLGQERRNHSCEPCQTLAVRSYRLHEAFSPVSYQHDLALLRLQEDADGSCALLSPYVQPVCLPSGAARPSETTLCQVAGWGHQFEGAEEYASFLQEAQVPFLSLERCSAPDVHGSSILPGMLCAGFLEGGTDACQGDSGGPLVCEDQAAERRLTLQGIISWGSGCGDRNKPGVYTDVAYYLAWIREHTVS
# [5] = target: T2, CAAX prenyl protease 2 (Saccharomyces cerevisiae S288c, UniProt Q03530); format: biochemical
# T2 sequence (Q03530 whole entry): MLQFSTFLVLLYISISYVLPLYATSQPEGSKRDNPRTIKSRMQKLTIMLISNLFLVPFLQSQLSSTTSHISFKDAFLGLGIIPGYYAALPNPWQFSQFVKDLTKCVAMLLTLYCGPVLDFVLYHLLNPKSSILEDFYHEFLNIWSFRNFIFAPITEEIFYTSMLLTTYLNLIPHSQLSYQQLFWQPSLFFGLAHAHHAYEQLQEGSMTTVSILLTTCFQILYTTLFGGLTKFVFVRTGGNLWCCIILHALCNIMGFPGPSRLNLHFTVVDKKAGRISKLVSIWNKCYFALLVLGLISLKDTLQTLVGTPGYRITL
# [6] = target: SUMO-activating enzyme (Homo sapiens, UniProt Q9UBT2); assay: blockers of UBC9-mediated SUMO conjugation – biochemical, AlphaScreen, SUMOylation inhibitor project, confirmation (AID 2018); format: functional
# Chain of SUMO-activating enzyme (Q9UBE0 whole entry): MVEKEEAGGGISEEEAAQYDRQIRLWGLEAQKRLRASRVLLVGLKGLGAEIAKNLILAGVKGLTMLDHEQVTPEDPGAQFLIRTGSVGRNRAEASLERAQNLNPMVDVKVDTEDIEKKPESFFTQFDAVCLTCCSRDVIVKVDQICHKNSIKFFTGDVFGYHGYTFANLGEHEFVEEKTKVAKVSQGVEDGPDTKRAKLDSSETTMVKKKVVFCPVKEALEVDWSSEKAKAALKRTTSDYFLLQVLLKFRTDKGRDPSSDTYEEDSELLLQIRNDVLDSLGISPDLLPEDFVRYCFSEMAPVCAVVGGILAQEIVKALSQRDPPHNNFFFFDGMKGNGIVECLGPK
# Chain of SUMO-activating enzyme (Q9UBT2 whole entry): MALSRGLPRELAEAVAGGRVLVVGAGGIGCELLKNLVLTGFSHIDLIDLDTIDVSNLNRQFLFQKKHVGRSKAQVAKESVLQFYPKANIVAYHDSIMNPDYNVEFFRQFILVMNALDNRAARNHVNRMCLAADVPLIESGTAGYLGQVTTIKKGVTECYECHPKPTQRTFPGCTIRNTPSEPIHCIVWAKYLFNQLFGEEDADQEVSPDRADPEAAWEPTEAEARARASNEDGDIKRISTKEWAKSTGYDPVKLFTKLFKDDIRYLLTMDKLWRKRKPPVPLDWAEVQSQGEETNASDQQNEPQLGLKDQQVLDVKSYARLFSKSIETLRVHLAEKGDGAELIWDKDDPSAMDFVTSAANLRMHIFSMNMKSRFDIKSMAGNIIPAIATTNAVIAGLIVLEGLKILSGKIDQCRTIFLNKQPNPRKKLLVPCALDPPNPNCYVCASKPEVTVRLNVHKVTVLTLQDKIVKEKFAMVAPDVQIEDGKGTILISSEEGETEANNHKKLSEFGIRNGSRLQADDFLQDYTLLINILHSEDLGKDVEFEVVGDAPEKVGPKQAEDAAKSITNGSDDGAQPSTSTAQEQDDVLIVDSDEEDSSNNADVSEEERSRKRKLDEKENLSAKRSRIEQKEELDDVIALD
# [7] = test system: HEK293; assay: cells; details: Homo sapiens
# [8] = test system: INS1; assay: INS-1E survival protection against cytokine death – cell-based, luminescence, retest, dose response (AID 449756); format: functional; details: Rattus norvegicus;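 also: cell death triggered by IL-1 beta plus TNF-alpha plus IFN-gamma mixture; protective hits raise ATP signal compared with cytokine alone wells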
# [9] = test system: Vero; assay: cells; format: functional, cell-based; details: Chlorocebus sabaeus
# [10] = test system: HEK293; assay: cells; details: Homo sapiens; remark: listed apart in the source
# [11] = Luminescence Cell-Based Dose Retest to Confirm Inhibitors of Cancer Stem Cells. [Related pubchem assays (depositor defined):AID2717, AID2721]; format: functional; details: Homo sapiens
# [12] = target: T3, Heat shock factor protein 1 (Mus musculus, UniProt P38532); assay: enhancement of HSF1-driven luciferase signal – cell-based, NIH3T3, luminescence, dose retest, confirmation (AID 435004); format: functional;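 also: stress induced by proteasome inhibitor MG132 added 30 min after compound; luciferase reporter driven by HSF1 response element in NIH3T3 cells; actives raise luminescence as potentiators of the MG132 stress response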
# T3 sequence (P38532 whole entry): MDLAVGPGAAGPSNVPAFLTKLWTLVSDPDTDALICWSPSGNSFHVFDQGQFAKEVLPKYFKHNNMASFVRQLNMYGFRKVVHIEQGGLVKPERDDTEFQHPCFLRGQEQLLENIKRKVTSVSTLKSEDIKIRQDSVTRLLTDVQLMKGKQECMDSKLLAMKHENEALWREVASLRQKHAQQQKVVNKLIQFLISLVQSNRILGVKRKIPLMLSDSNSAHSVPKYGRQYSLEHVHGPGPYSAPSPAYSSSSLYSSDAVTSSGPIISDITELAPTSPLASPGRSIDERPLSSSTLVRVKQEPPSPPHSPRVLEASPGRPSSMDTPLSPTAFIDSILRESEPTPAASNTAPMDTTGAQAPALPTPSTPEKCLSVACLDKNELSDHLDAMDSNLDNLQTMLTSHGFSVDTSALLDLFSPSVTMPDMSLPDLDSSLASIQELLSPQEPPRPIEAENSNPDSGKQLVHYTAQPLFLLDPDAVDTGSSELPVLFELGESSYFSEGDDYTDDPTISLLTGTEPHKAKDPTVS
# [13] = test system: Vero; assay: cells; format: functional; details: Chlorocebus sabaeus
# [14] = target: Induced myeloid leukemia cell differentiation protein Mcl-1 (Homo sapiens, UniProt Q07820); format: functional
# Chain of Induced myeloid leukemia cell differentiation protein Mcl-1 (Q07820 whole entry): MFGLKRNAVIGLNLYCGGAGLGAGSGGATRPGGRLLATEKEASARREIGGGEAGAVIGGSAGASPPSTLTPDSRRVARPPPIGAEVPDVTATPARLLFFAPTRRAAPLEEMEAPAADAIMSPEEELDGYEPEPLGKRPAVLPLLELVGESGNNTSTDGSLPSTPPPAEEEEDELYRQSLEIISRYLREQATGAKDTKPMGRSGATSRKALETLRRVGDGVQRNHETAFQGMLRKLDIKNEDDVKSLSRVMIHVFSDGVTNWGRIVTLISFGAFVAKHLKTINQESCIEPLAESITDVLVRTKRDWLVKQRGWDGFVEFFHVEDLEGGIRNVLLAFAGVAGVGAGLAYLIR
compound,measurement,setting,value
O=C(NNC(=O)c1cnccn1)c1ccc(Cl)c(Cl)c1,CC50,[1],12.5 µM (active)
same,IC50,[2],6.17 µM (active)
same,CC50,[3],14.6 µM (active)
O=C(Nc1cc(=O)[nH]c2ncnn12)c1ccco1,IC50,[4],> 50 µM (inactive)
Cc1ccc(C(=O)NCC(=O)OC(C)C(=O)Nc2ccc(N3CCOCC3)cc2)s1 (stereo not given),IC50,[4],> 50 µM (inactive)
Cc1ccc(-c2cc(C)nc3nc(N)nn23)cc1,AC50,[5],62.7 µM (active)
COc1ccc(Cc2n[nH]c(=S)n2NC(=O)Nc2ccc(C)cc2)cc1,IC50,[6],> 100 µM (inactive)
Sc1nnc(-c2cc(-c3ccccc3)[nH]n2)n1/N=C/C(Br)=C/c1ccccc1,EC50,[7],> 59.6 µM (inactive)
same,AC50,[8],9.04 µM (active)
same,IC50,[9],6.87 µM (active)
same,EC50,[10],> 59.6 µM (inactive)
same,AC50,[11],614 nM (active)
same,EC50,[12],2.65 µM (inconclusive)
same,CC50,[13],> 25 µM (active)
same,IC50,[14],4.97 µM (active)
